Legend:
Wild Type ALK kinase = molecular target: T1, Wild Type ALK kinase (Homo sapiens, UniProt Q9UM73); assay: HTRF KinEASE-TK assay, inhibitory activity on wild type ALK kinase; type: biochemical; settings: wild type ALK 1 ng/μl, substrate 1 μM, 30° C. 35 minutes, read-out: Inhibition on ALK kinases (wildtype), IC50
T1 construct: purchased Sino-US Crown Bioscience, Inc. batch number ALK 20110607
Outline: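 ALK kinase at 1 ng/μl and substrate at 1 μM were reacted with compound (1% DMSO) in buffer with 5 mM MgCl2 and 1 mM DTT for 35 min at 30 °C. HTRF detection used the 665/615 ratio, normalised to no-compound wells and to 10.4 μM LDK-378 wells. IC50 came from a concentration-response fit.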

NCI-H2228 cell line = assay: CellTiter-Glo cell proliferation inhibition on NCI-H2228 cell line; type: cell-based; settings: Homo sapiens, NCI-H2228, 96 h, NCI-H2228 cells, 5000 cells/well, 4 days drug treatment
Outline: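 NCI-H2228 cells, 5000/well in RPMI-1640 + 10% FBS, treated with compounds 2 h after seeding (0.5% DMSO final) for 4 days at 37° C. Viability by CellTiter-Glo luminescence; inhibition relative to DMSO control, IC50 from curve fit.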

cytochrome P450 2D6 = cytochrome P450 2D6 (Homo sapiens, UniProt P10635); assay: Inhibitory activity on cytochrome P450 2D6; type: in vitro ADME; settings: no significant inhibition
cytochrome P450 3A4 = cytochrome P450 3A4 (Homo sapiens, UniProt P08684); assay: Inhibitory activity on cytochrome P450 3A4; type: in vitro ADME; settings: no significant inhibition
cytochrome P450 1A2 = molecular target: T2, cytochrome P450 1A2 (Homo sapiens, UniProt P05177); assay: Inhibitory activity on cytochrome P450 1A2; type: in vitro ADME; settings: no significant inhibition
T2 sequence (P05177 1-516): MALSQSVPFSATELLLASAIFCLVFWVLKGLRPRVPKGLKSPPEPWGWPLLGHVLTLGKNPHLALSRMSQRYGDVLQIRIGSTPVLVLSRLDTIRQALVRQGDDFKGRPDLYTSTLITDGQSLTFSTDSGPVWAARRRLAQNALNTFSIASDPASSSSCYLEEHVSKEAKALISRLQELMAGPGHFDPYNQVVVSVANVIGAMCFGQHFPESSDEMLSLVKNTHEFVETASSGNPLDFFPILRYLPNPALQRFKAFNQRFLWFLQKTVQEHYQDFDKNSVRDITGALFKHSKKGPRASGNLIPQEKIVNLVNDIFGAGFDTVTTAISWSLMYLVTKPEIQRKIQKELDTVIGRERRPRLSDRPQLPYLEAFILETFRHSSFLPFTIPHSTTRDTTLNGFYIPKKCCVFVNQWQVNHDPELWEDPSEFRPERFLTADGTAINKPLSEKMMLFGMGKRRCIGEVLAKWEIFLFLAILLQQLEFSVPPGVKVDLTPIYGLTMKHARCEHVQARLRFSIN

cytochrome P450 2C19 = cytochrome P450 2C19 (Homo sapiens, UniProt P33261); assay: Inhibitory activity on cytochrome P450 2C19; type: in vitro ADME; settings: no significant inhibition
Sequence of cytochrome P450 2C19 (P33261 whole entry): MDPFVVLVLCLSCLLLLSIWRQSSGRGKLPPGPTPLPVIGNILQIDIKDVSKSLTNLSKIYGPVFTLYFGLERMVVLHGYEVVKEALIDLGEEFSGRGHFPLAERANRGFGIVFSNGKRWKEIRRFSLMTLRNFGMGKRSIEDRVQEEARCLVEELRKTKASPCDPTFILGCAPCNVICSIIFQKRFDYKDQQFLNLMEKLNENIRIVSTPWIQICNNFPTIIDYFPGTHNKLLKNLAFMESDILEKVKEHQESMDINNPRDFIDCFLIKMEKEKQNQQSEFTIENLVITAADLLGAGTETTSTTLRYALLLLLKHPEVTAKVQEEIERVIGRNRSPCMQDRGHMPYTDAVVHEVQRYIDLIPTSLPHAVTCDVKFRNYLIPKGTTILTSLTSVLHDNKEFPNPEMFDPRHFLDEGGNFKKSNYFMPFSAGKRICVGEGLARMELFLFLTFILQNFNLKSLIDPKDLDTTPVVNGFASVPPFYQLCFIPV

T1 sequence (Q9UM73 19-1620): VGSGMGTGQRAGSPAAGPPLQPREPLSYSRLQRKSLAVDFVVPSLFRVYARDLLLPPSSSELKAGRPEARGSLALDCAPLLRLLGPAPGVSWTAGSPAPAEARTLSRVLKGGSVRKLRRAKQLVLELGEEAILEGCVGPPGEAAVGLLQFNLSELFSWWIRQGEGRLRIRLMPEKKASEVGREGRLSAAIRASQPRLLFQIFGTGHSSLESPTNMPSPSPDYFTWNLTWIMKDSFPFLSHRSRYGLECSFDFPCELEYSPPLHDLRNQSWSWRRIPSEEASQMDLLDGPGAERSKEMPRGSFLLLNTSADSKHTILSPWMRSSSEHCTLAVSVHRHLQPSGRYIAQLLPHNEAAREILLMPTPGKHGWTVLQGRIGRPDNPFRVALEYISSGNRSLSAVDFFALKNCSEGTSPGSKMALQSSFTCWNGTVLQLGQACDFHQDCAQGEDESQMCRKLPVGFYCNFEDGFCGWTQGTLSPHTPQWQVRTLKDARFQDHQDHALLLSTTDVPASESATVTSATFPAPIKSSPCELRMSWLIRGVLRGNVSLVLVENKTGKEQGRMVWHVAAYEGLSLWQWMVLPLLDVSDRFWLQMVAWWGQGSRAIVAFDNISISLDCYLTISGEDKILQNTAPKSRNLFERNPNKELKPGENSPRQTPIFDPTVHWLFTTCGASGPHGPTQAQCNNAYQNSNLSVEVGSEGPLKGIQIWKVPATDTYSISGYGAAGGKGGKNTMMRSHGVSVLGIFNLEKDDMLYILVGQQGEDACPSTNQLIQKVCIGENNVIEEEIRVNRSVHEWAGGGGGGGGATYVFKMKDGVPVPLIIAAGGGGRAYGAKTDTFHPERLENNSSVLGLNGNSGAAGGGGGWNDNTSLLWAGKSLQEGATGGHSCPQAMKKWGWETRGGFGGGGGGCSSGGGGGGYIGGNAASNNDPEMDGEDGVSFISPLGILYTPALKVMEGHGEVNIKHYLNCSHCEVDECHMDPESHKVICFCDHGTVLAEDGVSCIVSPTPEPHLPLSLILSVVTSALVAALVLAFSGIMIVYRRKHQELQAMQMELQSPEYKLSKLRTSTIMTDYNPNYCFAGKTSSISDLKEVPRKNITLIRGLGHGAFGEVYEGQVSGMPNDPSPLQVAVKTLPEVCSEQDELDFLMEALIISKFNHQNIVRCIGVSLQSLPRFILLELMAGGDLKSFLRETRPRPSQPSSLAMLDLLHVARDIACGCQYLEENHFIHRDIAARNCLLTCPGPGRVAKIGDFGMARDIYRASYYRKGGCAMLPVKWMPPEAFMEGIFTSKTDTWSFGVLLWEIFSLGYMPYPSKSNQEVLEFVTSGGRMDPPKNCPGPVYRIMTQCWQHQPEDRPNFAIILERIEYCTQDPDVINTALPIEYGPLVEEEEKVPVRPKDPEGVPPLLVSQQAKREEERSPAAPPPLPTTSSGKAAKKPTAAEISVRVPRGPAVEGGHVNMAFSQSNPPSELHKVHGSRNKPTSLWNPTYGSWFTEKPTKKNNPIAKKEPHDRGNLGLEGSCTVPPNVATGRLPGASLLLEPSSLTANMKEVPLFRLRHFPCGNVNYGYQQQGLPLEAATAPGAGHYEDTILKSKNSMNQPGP
Sequence of cytochrome P450 3A4 (P08684 whole entry): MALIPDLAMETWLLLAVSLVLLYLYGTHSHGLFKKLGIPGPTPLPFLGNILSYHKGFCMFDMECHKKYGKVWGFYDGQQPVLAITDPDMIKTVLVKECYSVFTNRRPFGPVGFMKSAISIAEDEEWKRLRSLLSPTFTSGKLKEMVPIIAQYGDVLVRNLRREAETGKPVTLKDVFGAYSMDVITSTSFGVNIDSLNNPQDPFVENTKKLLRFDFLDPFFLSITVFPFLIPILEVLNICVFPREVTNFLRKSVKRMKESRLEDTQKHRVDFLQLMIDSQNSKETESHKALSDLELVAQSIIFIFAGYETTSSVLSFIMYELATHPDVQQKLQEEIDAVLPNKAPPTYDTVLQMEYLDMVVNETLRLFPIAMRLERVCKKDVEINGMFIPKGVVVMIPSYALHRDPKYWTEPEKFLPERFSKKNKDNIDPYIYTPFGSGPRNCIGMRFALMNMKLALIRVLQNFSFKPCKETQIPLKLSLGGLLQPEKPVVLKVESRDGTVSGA
Sequence of cytochrome P450 2D6 (P10635 whole entry): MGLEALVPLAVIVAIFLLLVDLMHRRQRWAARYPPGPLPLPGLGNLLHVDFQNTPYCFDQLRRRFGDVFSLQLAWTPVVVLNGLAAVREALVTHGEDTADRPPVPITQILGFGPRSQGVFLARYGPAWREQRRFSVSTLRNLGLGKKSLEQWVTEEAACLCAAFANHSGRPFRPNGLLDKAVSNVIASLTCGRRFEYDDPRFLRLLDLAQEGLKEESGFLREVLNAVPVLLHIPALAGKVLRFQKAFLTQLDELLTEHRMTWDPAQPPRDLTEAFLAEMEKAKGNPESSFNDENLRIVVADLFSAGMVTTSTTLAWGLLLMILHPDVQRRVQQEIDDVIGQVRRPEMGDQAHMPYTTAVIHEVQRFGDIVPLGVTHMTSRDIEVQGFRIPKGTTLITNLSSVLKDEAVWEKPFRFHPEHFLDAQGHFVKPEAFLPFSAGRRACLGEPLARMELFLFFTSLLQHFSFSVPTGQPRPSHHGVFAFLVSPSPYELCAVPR

Compound | IC50 (Wild Type ALK kinase) [µM] | IC50 (NCI-H2228 cell line) [µM] | IC50 (cytochrome P450 2D6) [µM] | IC50 (cytochrome P450 3A4) [µM] | IC50 (cytochrome P450 1A2) [µM] | IC50 (cytochrome P450 2C19) [µM]
CC(C)Oc1cc(C2CCNCC2)ccc1Nc1ncc(Cl)c(Nc2cn(C)nc2S(=O)(=O)C(C)C)n1 [Final product 1, 5-chloro-N^2-[2-isopropoxy-4-(piperidin-4-yl)phenyl]-N^4-(3-isopropylsulfonyl-1-methyl-1H-pyrazol-4-yl)pyrimidin-2,4-diamine] | 0.004 | 0.184 |  |  |  | 
Cc1cc(Nc2ncc(Cl)c(Nc3cn(C)nc3S(=O)(=O)C(C)C)n2)c(OC2CC2)cc1C1CCN(C)CC1F (stereo not shown) [Final product 87] | 0.006 | 0.113 |  |  |  | 
Cc1cc(Nc2ncc(Cl)c(Nc3cn(C)nc3S(=O)(=O)C(C)C)n2)c(OC2CC2)cc1C1CCC(NS(C)(=O)=O)CC1 (stereo not shown) [Final product 205, N-(4-(4-(5-chloro-4-(3-(isopropylsulfonyl)-1-methyl-1H-pyrazol-4-amine)pyrimidin-2-amine)-5-cyclopropoxy-2-methylphenyl)cyclohexyl)methanesulfonamide] |  | 0.151 | > 10 | > 10 | > 10 | > 10
Cc1cc(Nc2ncc(Cl)c(Nc3cn(C4CC4)nc3S(=O)(=O)C(C)C)n2)c(OC(C)C)cc1C1CCN(C)CC1 [Final product 81] | 0.011 | 0.19 |  |  |  | 
Cc1cc(Nc2ncc(Cl)c(Nc3cn(C)nc3S(=O)(=O)C(C)C)n2)c(OC2CC2)cc1C1CCN(C)CC1(F)F (stereo not shown) [Final product 88] | 0.006 | 0.072 |  |  |  | 
Cc1cc(Nc2ncc(Cl)c(Nc3cn(C)nc3S(=O)(=O)C(C)C)n2)c(OC(C)C)cc1C1CCNC1 (stereo not shown) [Final product 3] | 0.004 | 0.364 |  |  |  | 
Cc1cc(Nc2ncc(Cl)c(Nc3cn(C4CC4)nc3S(=O)(=O)C(C)C)n2)c(OC2CC2)cc1C1CCN(C)CC1 [Final product 56] | 0.005 | 0.142 |  |  |  | 
Cc1cc(Nc2ncc(Cl)c(Nc3cn(C)nc3S(=O)(=O)C(C)C)n2)c(OC(C)C)cc1C1CCNCC1 [Final product 2] | 0.006 | 0.198 |  |  |  | 

Next, values leading:

IC50 (Wild Type ALK kinase) [µM] | IC50 (NCI-H2228 cell line) [µM] | IC50 (cytochrome P450 2D6) [µM] | IC50 (cytochrome P450 3A4) [µM] | IC50 (cytochrome P450 1A2) [µM] | IC50 (cytochrome P450 2C19) [µM] | Compound
0.003 | 0.062 |  |  |  |  | COCC1CC(c2cc(OC3CC3)c(Nc3ncc(Cl)c(Nc4cn(C)nc4S(=O)(=O)CC(C)C)n3)cc2C)CCN1C (stereo not shown) [Final product 79]
0.004 | 0.181 |  |  |  |  | Cc1cc(Nc2ncc(Cl)c(Nc3cn(C)nc3S(=O)(=O)CC(C)C)n2)c(OC2CC2)cc1C1CN(C)C1 [Final product 55]
0.002 | 0.025 | > 10 | > 10 | > 10 | > 10 | COCC1CC(c2cc(OC3CC3)c(Nc3ncc(Cl)c(Nc4cn(C)nc4S(=O)(=O)C(C)C)n3)cc2C)CCN1C (stereo not shown) [Final product 77]
0.007 | 0.108 | > 10 | > 10 | > 10 | > 10 | Cc1cc(Nc2ncc(Cl)c(Nc3cn(C)nc3S(=O)(=O)CC(C)C)n2)c(OC2CC2)cc1C1CCN(C)CC1 [Final product 57]
0.003 | 0.018 |  |  |  |  | Cc1cc(Nc2ncc(Cl)c(Nc3cn(C)nc3S(=O)(=O)C(C)C)n2)c(OC2CC2)cc1C1CN(C)C1 [Final product 54]
0.004 | 0.055 |  |  |  |  | COC1CN(C)CCC1c1cc(OC2CC2)c(Nc2ncc(Cl)c(Nc3cn(C)nc3S(=O)(=O)C(C)C)n2)cc1C (stereo not shown) [Final product 58]
0.004 | 0.043 | > 10 | > 10 | > 10 | > 10 | COCCN1CCC(c2cc(OC3CC3)c(Nc3ncc(Cl)c(Nc4cn(C)nc4S(=O)(=O)C(C)C)n3)cc2C)CC1 [Final product 82]
0.001 | 0.045 |  |  |  |  | Cc1cc(Nc2ncc(Cl)c(Nc3cn(C)nc3S(=O)(=O)C(C)C)n2)c(OC2CC2)cc1C1CCN(C)CC1C (stereo not shown) [Final product 90]
0.003 | 0.133 |  |  |  |  | Cc1cc(Nc2ncc(Cl)c(Nc3cn(C)nc3S(=O)(=O)C(C)C)n2)c(OC2CC2)cc1C1CCN(C)C1 (stereo not shown) [Final product 53]

From US10023593B2, “ALK kinase inhibitor, and preparation method and uses thereof” (BEIJING PEARL BIOTECHNOLOGY LIMITED LIABILITY COMPANY, priority 2014, dated 2018)
